± gives the standard deviation of the averaged measurements.
Tests used:
[1] = compound: CNC(=O)c1ccc(N2C(=S)N(c3ccc(C#N)c(C(F)(F)F)c3)C(=O)C2(C)C)cc1F [MDV3100]; assay: surviving fraction relative to DMSO-only wells; higher = less growth inhibition; details: exposure time: 5 days
Procedure, shortened: (§1)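 Tumour cell lines in log phase were plated in 384-well plates at 250–500 cells per well, then, after 24 hours, exposed continuously for five days to inhibitors at 0.5, 1, 5, 10, 50, 100, 500 and 1000 nM. Viability came from CellTiter-Glo luminescence, and surviving fraction is that signal normalised to the median of DMSO-only wells. Plates were read after 10 minutes at room temperature, and each line, screened three times, was kept only when replicate Pearson r was >0.7 and median Z' was >0.3.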

[2] = compound: Cn1cc(C2=Nc3cc(NC(=O)C(N)C4CCCCC4)cc4c3C2=CNNC4=O)cn1; assay: as above; details: exposure time: 5 days
Procedure, shortened: as §1

Row | Test System | surviving fraction ([1]; 0.5 nM) | surviving fraction ([1]; 1 nM) | surviving fraction ([1]; 5 nM) | surviving fraction ([1]; 10 nM) | surviving fraction ([1]; 50 nM) | surviving fraction ([1]; 100 nM) | surviving fraction ([1]; 500 nM) | surviving fraction ([1]; 1000 nM) | surviving fraction ([2]; 0.5 nM) | surviving fraction ([2]; 1 nM) | surviving fraction ([2]; 5 nM) | surviving fraction ([2]; 10 nM) | surviving fraction ([2]; 50 nM) | surviving fraction ([2]; 100 nM) | surviving fraction ([2]; 500 nM) | surviving fraction ([2]; 1000 nM)
1 | DU4475 BREAST | 0.806 ± 0.11 | 0.938 ± 0.086 | 0.832 ± 0.098 | 0.992 ± 0.052 | 0.958 ± 0.074 | 0.907 ± 0.089 | 0.965 ± 0.11 | 0.933 ± 0.046 | 0.979 ± 0.32 | 0.981 ± 0.17 | 1.03 ± 0.2 | 0.96 ± 0.19 | 0.821 ± 0.25 | 0.659 ± 0.19 | 0.136 ± 0.026 | 0.0377 ± 0.0084
2 | 22RV1 PROSTATE | 0.953 ± 0.067 | 0.954 ± 0.061 | 0.997 ± 0.051 | 0.938 ± 0.066 | 0.934 ± 0.12 | 0.968 ± 0.04 | 0.862 ± 0.21 | 0.781 ± 0.27 | 1.07 ± 0.021 | 1.08 ± 0.059 | 0.99 ± 0.015 | 1.01 ± 0.02 | 1.03 ± 0.054 | 0.854 ± 0.037 | 0.626 ± 0.064 | 0.489 ± 0.029
3 | MDAMB157 BREAST | 0.935 ± 0.093 | 0.954 ± 0.071 | 0.933 ± 0.049 | 1.01 ± 0.079 | 0.927 ± 0.077 | 0.952 ± 0.071 | 0.853 ± 0.044 | 0.866 ± 0.097 | 0.982 ± 0.061 | 0.965 ± 0.13 | 1.02 ± 0.065 | 0.994 ± 0.12 | 1 ± 0.044 | 0.916 ± 0.1 | 0.425 ± 0.057 | 0.172 ± 0.043
4 | HCC202 BREAST | 0.968 ± 0.098 | 0.983 ± 0.18 | 0.865 ± 0.21 | 0.97 ± 0.34 | 1.1 ± 0.043 | 0.86 ± 0.12 | 0.999 ± 0.25 | 0.623 ± 0.085 | 0.89 ± 0.18 | 0.775 ± 0.22 | 0.967 ± 0.15 | 0.838 ± 0.22 | 0.66 ± 0.27 | 0.505 ± 0.18 | 0.274 ± 0.049 | 0.341 ± 0.054
5 | HCT15 LARGE INTESTINE | 0.906 ± 0.038 | 0.797 ± 0.11 | 0.862 ± 0.075 | 0.548 ± 0.11 | 0.938 ± 0.021 | 0.916 ± 0.027 | 0.968 ± 0.019 | 0.716 ± 0.1 | 0.997 ± 0.079 | 1.05 ± 0.034 | 1.07 ± 0.0081 | 1.05 ± 0.037 | 1 ± 0.063 | 1.05 ± 0.045 | 1 ± 0.031 | 0.951 ± 0.028
6 | BT20 BREAST | 1.1 ± 0.12 | 1.15 ± 0.066 | 1.11 ± 0.042 | 1.14 ± 0.029 | 0.907 ± 0.036 | 1.13 ± 0.068 | 0.969 ± 0.1 | 1.02 ± 0.03 | 1.1 ± 0.05 | 1.08 ± 0.047 | 1.09 ± 0.092 | 1.05 ± 0.074 | 0.943 ± 0.08 | 0.847 ± 0.054 | 0.976 ± 0.1 | 0.874 ± 0.065
7 | SUM149 BREAST | 1.03 ± 0.047 | 0.922 ± 0.087 | 0.897 ± 0.038 | 0.36 ± 0.043 | 1.07 ± 0.095 | 0.951 ± 0.021 | 1.01 ± 0.092 | 0.546 ± 0.013 | 0.875 ± 0.087 | 0.854 ± 0.13 | 0.874 ± 0.14 | 0.911 ± 0.1 | 0.481 ± 0.067 | 0.238 ± 0.047 | 0.0587 ± 0.0096 | 0.063 ± 0.0062
8 | HCC1954 BREAST | 1.12 ± 0.018 | 0.975 ± 0.18 | 1.17 ± 0.19 | 1.25 ± 0.25 | 0.919 ± 0.077 | 0.909 ± 0.017 | 0.9483 ± 0.0088 | 0.771 ± 0.012 | 0.772 ± 0.092 | 0.584 ± 0.042 | 0.927 ± 0.019 | 0.889 ± 0.035 | 0.571 ± 0.011 | 0.6015 ± 0.0014 | 0.1713 ± 0.0011 | 0.0897 ± 0.0074
9 | G292 BONE | 0.9907 ± 0.009 | 1.03 ± 0.02 | 1.03 ± 0.059 | 1.02 ± 0.013 | 0.956 ± 0.032 | 0.985 ± 0.036 | 0.961 ± 0.013 | 0.865 ± 0.024 | 1.03 ± 0.019 | 0.968 ± 0.051 | 1.02 ± 0.077 | 1.04 ± 0.029 | 0.631 ± 0.018 | 0.315 ± 0.0083 | 0.11 ± 0.0059 | 0.0638 ± 0.0015
10 | SG43 HEADNECK | 0.866 ± 0.21 | 1.01 ± 0.25 | 0.913 ± 0.11 | 0.952 ± 0.14 | 0.702 ± 0.11 | 0.998 ± 0.28 | 1.17 ± 0.06 | 1.16 ± 0.065 | 1.08 ± 0.17 | 0.969 ± 0.1 | 0.929 ± 0.19 | 1.01 ± 0.37 | 1.11 ± 0.21 | 1.06 ± 0.15 | 0.888 ± 0.098 | 0.968 ± 0.097
11 | SNU475 LIVER | 1.03 ± 0.034 | 0.903 ± 0.024 | 1 ± 0.039 | 0.438 ± 0.011 | 1.01 ± 0.018 | 0.902 ± 0.016 | 0.974 ± 0.014 | 0.516 ± 0.02 | 0.965 ± 0.028 | 0.967 ± 0.053 | 0.987 ± 0.013 | 1.01 ± 0.02 | 0.892 ± 0.038 | 0.898 ± 0.046 | 0.731 ± 0.034 | 0.514 ± 0.082
12 | T47D BREAST | 0.9561 ± 0.0072 | 0.988 ± 0.044 | 0.983 ± 0.021 | 0.894 ± 0.035 | 1.1 ± 0.015 | 1.02 ± 0.036 | 1.03 ± 0.047 | 0.999 ± 0.041 | 0.9916 ± 0.0057 | 1.02 ± 0.032 | 1.03 ± 0.041 | 1.07 ± 0.022 | 1.12 ± 0.044 | 1.14 ± 0.059 | 0.896 ± 0.023 | 0.661 ± 0.021
13 | SUM159 BREAST | 1.01 ± 0.034 | 1.005 ± 0.0052 | 1.01 ± 0.011 | 0.996 ± 0.01 | 1.01 ± 0.013 | 1.014 ± 0.0025 | 1.02 ± 0.015 | 0.9937 ± 0.0058 | 1.13 ± 0.14 | 1.16 ± 0.17 | 1.16 ± 0.19 | 1.12 ± 0.12 | 1.01 ± 0.066 | 1.1 ± 0.12 | 1.04 ± 0.012 | 0.862 ± 0.011

Source: the supplement of paper PMC6045584
